US11021467B2, “Phosphatidylinositol 3-kinase inhibitors” (Gilead Sciences, Inc., priority 2014, dated 2021)

Tests used:
Assay in all cases: TR-FRET enzymatic activity assay against PI3K isoforms
Type in all cases: biochemical
PI3Kδ = PI3Kδ (Homo sapiens (Human), UniProt O00329); conditions: 2×Km ATP, 30 minutes at 25° C.
Source text: (§1) The compounds of formula (I) were characterized for their enzymatic activity against the PI3K isoforms. […] TR-FRET monitored the formation of 3,4,5-inositol triphosphate molecule that competed with fluorescently labeled PIP3 for binding to the GRP-1 pleckstrin homology domain protein.

PI3Kβ = PI3Kβ (Homo sapiens (Human), UniProt P42338); conditions: for IC50: PI3Kβ, TR-FRET, 2×Km ATP, 30 minutes at 25° C.
Source text: as §1

PI3Kγ = PI3Kγ (Homo sapiens (Human), UniProt P48736); conditions: 2×Km ATP, 30 minutes at 25° C.
Source text: as §1

PI3Kβ, sequence (P42338 whole entry): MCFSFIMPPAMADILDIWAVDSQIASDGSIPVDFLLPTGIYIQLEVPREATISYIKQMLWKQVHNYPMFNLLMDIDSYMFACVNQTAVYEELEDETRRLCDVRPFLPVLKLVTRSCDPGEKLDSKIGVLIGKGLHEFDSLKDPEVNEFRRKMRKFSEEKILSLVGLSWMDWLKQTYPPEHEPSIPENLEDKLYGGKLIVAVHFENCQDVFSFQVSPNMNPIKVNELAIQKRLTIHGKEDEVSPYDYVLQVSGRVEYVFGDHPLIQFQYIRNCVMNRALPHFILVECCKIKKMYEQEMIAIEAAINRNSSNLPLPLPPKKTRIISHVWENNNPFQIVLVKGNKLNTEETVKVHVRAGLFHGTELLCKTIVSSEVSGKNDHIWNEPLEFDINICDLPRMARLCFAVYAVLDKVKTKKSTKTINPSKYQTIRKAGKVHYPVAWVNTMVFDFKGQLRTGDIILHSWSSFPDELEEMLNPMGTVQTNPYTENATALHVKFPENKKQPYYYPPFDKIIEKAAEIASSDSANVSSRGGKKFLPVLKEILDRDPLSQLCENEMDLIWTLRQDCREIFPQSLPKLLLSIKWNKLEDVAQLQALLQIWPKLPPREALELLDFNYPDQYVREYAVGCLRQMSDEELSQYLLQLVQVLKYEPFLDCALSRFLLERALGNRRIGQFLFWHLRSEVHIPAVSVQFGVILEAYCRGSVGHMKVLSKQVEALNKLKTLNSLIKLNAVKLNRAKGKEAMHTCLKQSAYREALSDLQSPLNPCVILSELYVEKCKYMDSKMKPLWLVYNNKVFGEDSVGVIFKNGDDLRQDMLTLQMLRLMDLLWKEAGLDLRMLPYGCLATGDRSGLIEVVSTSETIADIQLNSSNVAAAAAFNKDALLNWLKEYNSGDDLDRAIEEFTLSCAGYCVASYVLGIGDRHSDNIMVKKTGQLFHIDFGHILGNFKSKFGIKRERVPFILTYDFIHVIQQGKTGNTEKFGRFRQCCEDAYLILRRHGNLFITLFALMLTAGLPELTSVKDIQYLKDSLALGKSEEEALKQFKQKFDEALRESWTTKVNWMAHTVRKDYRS
PI3Kβ, sequence (P27986 whole entry partner): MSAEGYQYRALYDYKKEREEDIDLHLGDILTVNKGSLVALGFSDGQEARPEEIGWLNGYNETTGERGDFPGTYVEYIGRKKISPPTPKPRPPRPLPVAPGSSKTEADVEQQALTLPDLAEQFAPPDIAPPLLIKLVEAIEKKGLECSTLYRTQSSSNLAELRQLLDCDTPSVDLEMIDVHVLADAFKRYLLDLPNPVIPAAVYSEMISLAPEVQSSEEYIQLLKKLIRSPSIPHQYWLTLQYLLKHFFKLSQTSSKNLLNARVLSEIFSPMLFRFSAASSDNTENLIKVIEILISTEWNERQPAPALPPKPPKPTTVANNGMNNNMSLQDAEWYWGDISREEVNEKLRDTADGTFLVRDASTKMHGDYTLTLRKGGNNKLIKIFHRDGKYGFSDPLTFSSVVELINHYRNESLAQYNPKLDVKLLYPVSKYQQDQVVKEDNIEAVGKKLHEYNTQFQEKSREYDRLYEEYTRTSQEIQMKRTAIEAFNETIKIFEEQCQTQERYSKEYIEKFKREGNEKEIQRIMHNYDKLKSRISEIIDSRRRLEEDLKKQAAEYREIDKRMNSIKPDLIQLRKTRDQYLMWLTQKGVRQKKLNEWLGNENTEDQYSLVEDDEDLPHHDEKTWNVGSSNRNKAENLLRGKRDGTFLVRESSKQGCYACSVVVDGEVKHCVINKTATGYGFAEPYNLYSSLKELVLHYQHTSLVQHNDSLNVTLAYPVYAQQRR
PI3Kδ, sequence (O00329 whole entry, the tested form may be a part, canonical isoform): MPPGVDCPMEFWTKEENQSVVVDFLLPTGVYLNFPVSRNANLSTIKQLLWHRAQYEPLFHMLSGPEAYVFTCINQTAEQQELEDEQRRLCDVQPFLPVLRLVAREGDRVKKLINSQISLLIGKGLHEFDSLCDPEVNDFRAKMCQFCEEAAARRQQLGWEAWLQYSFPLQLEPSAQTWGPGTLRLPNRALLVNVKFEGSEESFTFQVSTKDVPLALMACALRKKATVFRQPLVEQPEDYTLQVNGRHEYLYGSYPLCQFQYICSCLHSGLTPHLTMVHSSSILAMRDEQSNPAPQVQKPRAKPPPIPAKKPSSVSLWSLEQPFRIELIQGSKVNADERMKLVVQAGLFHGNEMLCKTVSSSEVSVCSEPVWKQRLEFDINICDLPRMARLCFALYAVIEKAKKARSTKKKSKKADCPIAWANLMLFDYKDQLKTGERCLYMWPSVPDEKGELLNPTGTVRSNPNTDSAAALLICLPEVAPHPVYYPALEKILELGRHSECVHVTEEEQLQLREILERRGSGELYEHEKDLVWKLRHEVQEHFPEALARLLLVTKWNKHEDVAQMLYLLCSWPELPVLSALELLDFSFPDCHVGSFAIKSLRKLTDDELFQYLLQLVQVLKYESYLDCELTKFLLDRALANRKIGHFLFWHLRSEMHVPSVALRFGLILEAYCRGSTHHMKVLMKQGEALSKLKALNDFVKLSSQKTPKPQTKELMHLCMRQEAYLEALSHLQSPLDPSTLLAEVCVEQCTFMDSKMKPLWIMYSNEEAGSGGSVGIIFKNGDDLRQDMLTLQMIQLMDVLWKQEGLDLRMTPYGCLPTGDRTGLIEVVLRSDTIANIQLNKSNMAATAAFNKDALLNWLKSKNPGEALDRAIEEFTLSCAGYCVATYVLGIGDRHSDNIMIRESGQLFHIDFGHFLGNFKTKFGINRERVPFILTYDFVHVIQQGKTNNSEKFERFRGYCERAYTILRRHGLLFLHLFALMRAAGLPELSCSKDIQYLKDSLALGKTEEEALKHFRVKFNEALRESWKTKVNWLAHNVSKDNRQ
PI3Kδ, sequence (P27986 whole entry partner, the tested form may be a part, canonical isoform): as the sequence (P27986 whole entry partner) above
PI3Kγ, sequence (P48736 whole entry): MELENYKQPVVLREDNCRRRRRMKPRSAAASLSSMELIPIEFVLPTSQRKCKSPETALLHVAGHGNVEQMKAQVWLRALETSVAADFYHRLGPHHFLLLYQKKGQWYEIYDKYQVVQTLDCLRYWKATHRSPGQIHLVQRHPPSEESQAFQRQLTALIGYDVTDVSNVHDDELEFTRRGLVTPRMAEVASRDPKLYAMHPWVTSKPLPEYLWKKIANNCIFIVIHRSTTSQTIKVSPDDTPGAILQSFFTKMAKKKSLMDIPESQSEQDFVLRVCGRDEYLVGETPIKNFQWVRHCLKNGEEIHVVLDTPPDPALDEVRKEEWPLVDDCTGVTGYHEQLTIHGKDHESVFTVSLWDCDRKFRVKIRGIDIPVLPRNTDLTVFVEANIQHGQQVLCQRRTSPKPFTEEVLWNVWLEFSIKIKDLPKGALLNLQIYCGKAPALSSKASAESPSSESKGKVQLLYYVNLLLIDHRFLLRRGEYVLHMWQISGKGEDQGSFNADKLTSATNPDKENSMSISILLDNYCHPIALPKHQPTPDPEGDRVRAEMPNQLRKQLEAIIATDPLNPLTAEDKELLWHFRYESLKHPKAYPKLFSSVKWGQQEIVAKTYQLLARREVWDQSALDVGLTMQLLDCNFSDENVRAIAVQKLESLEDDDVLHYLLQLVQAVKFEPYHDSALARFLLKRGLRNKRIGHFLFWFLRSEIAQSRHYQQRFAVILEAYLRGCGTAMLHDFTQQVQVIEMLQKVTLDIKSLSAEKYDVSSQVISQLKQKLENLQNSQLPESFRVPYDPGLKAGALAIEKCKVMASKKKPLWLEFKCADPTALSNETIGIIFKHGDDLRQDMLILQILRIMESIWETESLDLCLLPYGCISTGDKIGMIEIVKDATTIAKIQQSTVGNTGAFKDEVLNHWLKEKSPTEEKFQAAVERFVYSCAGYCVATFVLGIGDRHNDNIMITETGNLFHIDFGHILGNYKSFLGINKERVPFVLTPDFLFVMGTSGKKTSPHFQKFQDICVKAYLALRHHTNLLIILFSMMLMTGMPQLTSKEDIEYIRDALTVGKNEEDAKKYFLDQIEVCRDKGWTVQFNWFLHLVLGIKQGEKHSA

Row | IC50 (PI3Kδ) [µM] | IC50 (PI3Kβ) [µM] | IC50 (PI3Kγ) [µM] | PI3Kγ/PI3Kβ ratio (PI3Kβ; ratio of IC50 values, selectivity for PI3Kβ over PI3Kγ) | SMILES
1 | 0.007 | 0.2 | ≥ 10 | – | CC(CN)Cn1c([C@H](C)Nc2ncnc(N)c2C#N)nc2cccc(Cl)c2c1=O (stereo partly drawn) [Compound 27, 4-amino-6-(((1S)-1-(3-(3-amino-2-methylpropyl)-5-chloro-4-oxo-3,4-dihydroquinazolin-2-yl)ethyl)amino)pyrimidine-5-carbonitrile]
2 | 0.003 | 0.1 | ≥ 10 | – | C[C@H](Nc1ncnc(N)c1C#N)c1nc2cccc(Cl)c2c(=O)n1CCCCN [Compound 28, (S)-4-amino-6-((1-(3-(4-aminobutyl)-5-chloro-4-oxo-3,4-dihydroquinazolin-2-yl)ethyl)amino)pyrimidine-5-carbonitrile]
3 | 0.007 | 0.047 | ≥ 10 | – | Cc1cccc2nc([C@H](C)Nc3ncnc(N)c3C#N)n(CCCN)c(=O)c12 [Compound 29, (S)-4-amino-6-((1-(3-(3-aminopropyl)-5-methyl-4-oxo-3,4-dihydroquinazolin-2-yl)ethyl)amino)pyrimidine-5-carbonitrile]
4 | 0.011 | 0.11 | ≥ 10 | – | C[C@H](Nc1ncnc(N)c1Cl)c1nc2cccc(Cl)c2c(=O)n1CCCN [Compound 30, (S)-2-(1-((6-amino-5-chloropyrimidin-4-yl)amino)ethyl)-3-(3-aminopropyl)-5-chloroquinazolin-4(3H)-one]
5 | 0.006 | 0.047 | ≥ 10 | – | CNCCCn1c([C@H](C)Nc2ncnc(N)c2C#N)nc2cccc(Cl)c2c1=O [Compound 31, (S)-4-amino-6-((1-(5-chloro-3-(3-(methylamino)propyl)-4-oxo-3,4-dihydroquinazolin-2-yl)ethyl)amino)pyrimidine-5-carbonitrile]
6 | 0.092 | 0.044 | 3.2 | – | C[C@H](NC(=O)c1c(N)nn2cccnc12)c1nc2cccc(Cl)c2c(=O)n1CCCN [Compound 32, (S)-2-amino-N-(1-(3-(3-aminopropyl)-5-chloro-4-oxo-3,4-dihydroquinazolin-2-yl)ethyl)pyrazolo[1,5-a]pyrimidine-3-carboxamide]
7 | 0.21 | 2.1 | ≥ 10 | – | CC(C)C[C@H](Nc1ncnc(N)c1C#N)c1nc2cccc(Cl)c2c(=O)n1CCCN [Compound 33, (S)-4-amino-6-((1-(3-(3-aminopropyl)-5-chloro-4-oxo-3,4-dihydroquinazolin-2-yl)-3-methylbutyl)amino)pyrimidine-5-carbonitrile]
8 | 0.079 | 0.25 | ≥ 10 | – | CC[C@H](Nc1ncnc(N)c1C#N)c1nc2cccc(Cl)c2c(=O)n1CCCN [Compound 34, (S)-4-amino-6-((1-(3-(3-aminopropyl)-5-chloro-4-oxo-3,4-dihydroquinazolin-2-yl)propyl)amino)pyrimidine-5-carbonitrile]
9 | 0.021 | 0.11 | ≥ 10 | – | NCCCn1c([C@@H](Nc2ncnn3ccnc23)C2CC2)nc2cccc(Cl)c2c1=O [Compound 35, (S)-3-(3-aminopropyl)-5-chloro-2-(cyclopropyl(imidazo[2,1-][1,2,4]triazin-4-ylamino)methyl)quinazolin-4(3H)-one]
10 | 0.027 | 0.071 | 8.2 | – | CC[C@H](Nc1nc(N)nc(N)c1C#N)c1nc2cccc(Cl)c2c(=O)n1CCCN [Compound 36, (S)-2,4-diamino-6-((1-(3-(3-aminopropyl)-5-chloro-4-oxo-3,4-dihydroquinazolin-2-yl)propyl)amino)pyrimidine-5-carbonitrile]
11 | 0.016 | 0.057 | 4.8 | – | NCCCn1c([C@@H](Nc2ncnc3cccnc23)C2CC2)nc2cccc(Cl)c2c1=O [Compound 37, (S)-3-(3-aminopropyl)-5-chloro-2-(cyclopropyl(pyrido[3,2-d]pyrimidin-4-ylamino)methyl)quinazolin-4(3H)-one]
12 | 0.012 | 0.044 | ≥ 10 | – | NCCCn1c([C@@H](Nc2nc(N)nc(N)c2Cl)C2CC2)nc2cccc(Cl)c2c1=O [Compound 38, (S)-3-(3-aminopropyl)-5-chloro-2-(cyclopropyl((2,6-diamino-5-chloropyrimidin-4-yl)amino)methyl)quinazolin-4(3H)-one]
13 | 0.003 | 0.025 | 2.4 | – | CNCCCn1c([C@H](C)Nc2nc(N)nc(N)c2C#N)nc2cccc(Cl)c2c1=O [Compound 39, (S)-2,4-diamino-6-((1-(5-chloro-3-(3-(methylamino)propyl)-4-oxo-3,4-dihydroquinazolin-2-yl)ethyl)amino)pyrimidine-5-carbonitrile]
14 | 0.009 | 0.021 | ≥ 10 | – | N#Cc1c(N)ncnc1N[C@H](c1nc2cccc(Cl)c2c(=O)n1CCCN)C1CC1 [Compound 40, (S)-4-amino-6-(((3-(3-aminopropyl)-5-chloro-4-oxo-3,4-dihydroquinazolin-2-yl)(cyclopropyl)methyl)amino)pyrimidine-5-carbonitrile]
15 | 0.003 | 0.015 | 1.8 | – | CNCCCn1c([C@H](C)Nc2nc(N)nc(C)c2C#N)nc2cccc(Cl)c2c1=O [Compound 41, (S)-2-amino-4-((1-(5-chloro-3-(3-(methylamino)propyl)-4-oxo-3,4-dihydroquinazolin-2-yl)ethyl)amino)-6-methylpyrimidine-5-carbonitrile]
16 | 0.002 | 0.015 | 1.4 | – | C[C@H](Nc1nc(N)nc(N)c1C#N)c1nc2cccc(Cl)c2c(=O)n1CCCN [Compound 42, (S)-2,4-diamino-6-((1-(3-(3-aminopropyl)-5-chloro-4-oxo-3,4-dihydroquinazolin-2-yl)ethyl)amino)pyrimidine-5-carbonitrile]
17 | 0.006 | 0.007 | 3.4 | – | NCCCn1c([C@@H](Nc2ncnc3[nH]cc(Br)c23)C2CC2)nc2cccc(Cl)c2c1=O [Compound 43, (S)-3-(3-aminopropyl)-2-(((5-bromo-7H-pyrrolo[2,3-d]pyrimidin-4-yl)amino)(cyclopropyl)methyl)-5-chloroquinazolin-4(3H)-one]
18 | 0.011 | 0.008 | 6 | – | N#Cc1c(Cl)nc(N)nc1N[C@H](c1nc2cccc(Cl)c2c(=O)n1CCCN)C1CC1 [Compound 44, (S)-2-amino-4-(((3-(3-aminopropyl)-5-chloro-4-oxo-3,4-dihydroquinazolin-2-yl)(cyclopropyl)methyl)amino)-6-chloropyrimidine-5-carbonitrile]
19 | 0.004 | 0.007 | 2.1 | – | NCCCn1c([C@@H](Nc2ncnc3scnc23)C2CC2)nc2cccc(Cl)c2c1=O [Compound 45, (S)-3-(3-aminopropyl)-5-chloro-2-(cyclopropyl(thiazolo[5,4-d]pyrimidin-7-ylamino)methyl)quinazolin-4(3H)-one]
20 | 0.003 | 0.006 | 2.5 | – | CNCCCn1c([C@@H](Nc2nc(N)nc(N)c2C#N)C2CC2)nc2cccc(Cl)c2c1=O [Compound 46, (S)-2,4-diamino-6-(((5-chloro-3-(3-(methylamino)propyl)-4-oxo-3,4-dihydroquinazolin-2-yl)(cyclopropyl)methyl)amino)pyrimidine-5-carbonitrile]
21 | 0.003 | 0.005 | 1.1 | 230 | N#Cc1c(N)nc(N)nc1N[C@H](c1nc2cccc(Cl)c2c(=O)n1CCCN)C1CC1 [Compound 47, (S)-2,4-diamino-6-(((3-(3-aminopropyl)-5-chloro-4-oxo-3,4-dihydroquinazolin-2-yl)(cyclopropyl)methyl)amino)pyrimidine-5-carbonitrile]
22 | 0.004 | 0.004 | 0.9 | – | NCCCn1c([C@@H](Nc2ncnc3ccc(Cl)nc23)C2CC2)nc2cccc(Cl)c2c1=O [Compound 48, (S)-3-(3-aminopropyl)-5-chloro-2-(((6-chloropyrido[3,2-d]pyrimidin-4-yl)amino)(cyclopropyl)methyl)quinazolin-4(3H)-one]
23 | 0.001 | 0.001 | 0.75 | – | Cc1nc(N)nc(N[C@H](c2nc3cccc(Cl)c3c(=O)n2CCCN)C2CC2)c1C#N [Compound 49, (S)-2-amino-4-(((3-(3-aminopropyl)-5-chloro-4-oxo-3,4-dihydroquinazolin-2-yl)(cyclopropyl)methyl)amino)-6-methylpyrimidine-5-carbonitrile]
24 | 0.071 | 0.075 | 4.6 | – | C[C@H](NC(=O)c1nc(Br)c(N)nc1N)c1nc2cccc(Cl)c2c(=O)n1CCCN [Compound 50, (S)-3,5-diamino-N-(1-(3-(3-aminopropyl)-5-chloro-4-oxo-3,4-dihydroquinazolin-2-yl)ethyl)-6-bromopyrazine-2-carboxamide]
25 | 0.008 | 0.11 | 5.5 | – | CC(=O)NCCCn1c([C@H](C)Nc2ncnc(N)c2C#N)nc2cccc(Cl)c2c1=O [Compound 51, (S)—N-(3-(2-(1-((6-amino-5-cyanopyrimidin-4-yl)amino)ethyl)-5-chloro-4-oxoquinazolin-3(4H)-yl)propyl)acetamide]
26 | 0.004 | 0.029 | 1.2 | – | CC(C)(C)C(=O)NCCCn1c([C@@H](Nc2nc(N)nc(N)c2C#N)C2CC2)nc2cccc(Cl)c2c1=O [Compound 52, (S)—N-(3-(5-chloro-2-(cyclopropyl((2,6-diamino-5-cyanopyrimidin-4-yl)amino)methyl)-4-oxoquinazolin-3(4H)-yl)propyl)pivalamide]
